Laboratory results reported in patent US20220281794A1, “METHOD OF THE ISOLATING CHLOROSESAMONE OR CHLOROSESAMONE-CONTAINING FRACTION FROM ROOTS OF GENUS SESAMUM, AND APPLICATION OF THE FRACTION THEREOF” (BRILLIANT BIOMEDICAL CORP., priority 2019, published 2022).

Tests used:
Assay type in all cases: cell-based
[1] = test system: 4T1 mouse breast cancer cell; experiment: cell viability assay (MTT assay), 4T1; conditions: 4T1 cells, 24 hours treatment stated for D2 fraction
Protocol: (§1) In the first embodiment, MDA-MB-231, a human breast cancer cell and 4T1, a mouse breast cancer cell, Huh-7 and HepG2, a human liver cancer cell and BNL-1-MEA, a mouse liver cancer cell, HL60, a human blood cancer cell and WEHI-3, a mouse blood cancer cell , and
(§2) A549, a human lung cancer cell and LLC1, a mouse lung cancer cell are used for the experiments. A 96-well plate is used for cell culture. In the test, cells are treated with 0, 25, 50, 100, 200, 400 μg/mL of D2 fraction for 24 hours, and then subjected to cell viability assay (or MTT assay). In cell viability assay, cells are washed with 1X PBS once and treated with 0.5 mg/mL of MTT (3-(4,5-Dimethylthiazol-2-yl)-2,5-diphenyltetrazolium bromide). After incubation at 37 degrees Centigrade for 1-2 hours MTT is removed and cells are washed with 1X PBS once, followed by dimethyl sulfoxide (DMSO) to dissolve […]. Finally optical density (OD) of 570 nm is detected and medium only is used as a 100% cell viability.

[2] = test system: 4T1 mouse breast cancer cell and HepG2 human liver cancer cell; experiment: cell viability assay, summary over 4T1 and HepG2; conditions: range over 4T1 and HepG2 cells
Protocol: as §1, §2

[3] = test system: HepG2 human liver cancer cell; experiment: cell viability assay (MTT assay), HepG2; conditions: HepG2 cells, 24 hours treatment stated for D2 fraction
Protocol: as §1, §2

CC(C)=CCC1=C(Cl)C(=O)c2c(O)ccc(O)c2C1=O [chlorosesamone]
50% inhibition concentration in 4T1 mouse breast cancer cell [1]: 1.3 µg/mL
50% inhibition concentration of chlorosesamone (range) [2]: 0.8 to 1.3 µg/mL
50% inhibition concentration in HepG2 human liver cancer cell [3]: 0.8 µg/mL
